# From US20150148249A1, “METHOD OF IMPROVING THE SENSITIVITY OF COMPETITIVE IMMUNOASSAY” (SHENZHEN BIOEASY BIOTECHNOLOGY CO., LTD, priority 2012, published 2015)
# Several values for one entry are separate records, joined by “and”; a condition that tells them apart may be missing. Equal entries are not always repeated.
# Key:
# Assay type in all cases: binding
# ciprofloxacin antibody [1] = experiment: Competitive ELISA for ciprofloxacin, pre-reaction mode vs direct addition (Embodiment 1)
# Procedure: Coat the ELISA plate with ciprofloxacin BSA conjugate, 1 μg/mL, 100 μL per well, blocking overnight at 4° C. Then block with 3% skimmed milk powder the following day. Prepare ciprofloxacin standards, 0 ppb, 1 ppb, 3 ppb, 9 ppb, 27 ppb, 81 ppb with the wash buffer (PBST).
# The experiment is divided into two groups.
# Group 1: pre-incubate 60 μL standards and 60 μL diluted ciprofloxacin antibody for 20 minutes at 37° C.; then take 100 μL reaction product and add to the ELISA plate covering with ciprofloxacin conjugate, react for 30 minutes at 37° C.; wash the plate, add HRP labeled secondary antibody, react for 30 minutes at 37° C., wash the plate; add chromogenic agent 100 μL, react for 15 minutes at 37° C.; and finally add 50 μL termination solution, then measure the OD450 with a microplate reader.
# Group 2: add into the ELISA plate covering with ciprofloxacin conjugate with 50 μL standard and 50 μL antibody, in the sequence; react for 30 minutes at 37° C., wash the plate; add HRP labeled secondary antibody, react for 30 minutes at 37° C., wash the plate; add chromogenic agent 100 μL, react for 15 minutes at 37° C.; and finally add 50 μL termination solution, then measure OD450 with a microplate reader.
# ciprofloxacin antibody [2] = experiment: Competitive ELISA for ciprofloxacin, different pre-reaction times (Embodiment 3); details: re-reaction 1 min, 6 times
# Procedure: (§1) Coat the ELISA plate with ciprofloxacin BSA conjugate, 1 μg/mL, 100 μL per well, blocking overnight at 4° C. Then block with 3% skimmed milk powder the following day. Prepare ciprofloxacin standards, 0 ppb, 1 ppb, 5 ppb, and 10 ppb with wash buffer.
# The experiment is divided into 4 groups, each group takes 100 μL standard and 100 μL ciprofloxacin antibody, pre-incubate for 5 minutes, 10 minutes, 15 minutes and 20 minutes at 37° C. in the microplates respectively, then take 20 μL mixture solutions of antibody and standard and add to the ciprofloxacin ELISA plate, react for 1 minute, discard the liquid in the well, and pat dry on absorbent paper, then add 20 μL mixture solution and react for 1 minute, repeat for a total 6 times; wash the plate; add HRP labeled secondary antibody, react for 30 minutes at 37° C., wash the plate; add chromogenic agent 100 μL, react for 15 minutes at 37° C.; and finally add 50 μL termination solution, then measure the OD450.
# ciprofloxacin antibody [3] = experiment: Competitive ELISA for ciprofloxacin, different re-reaction times (Embodiment 2)
# Procedure: as §1
# The experiment is divided into 5 groups, each group takes 100 μL standard and 100 μL ciprofloxacin antibody, pre-react for 20 minutes at 37° C. in the microplates, then add to ciprofloxacin ELISA plates:
# Take 120 μL pre-reaction product to the ciprofloxacin ELISA plates from group 1, group 2, group 3 and group 4, and resume reacting for 30 minutes, 20 minutes, 10 minutes and 5 minutes respectively; wash the plate; add HRP labeled secondary antibody, react for 30 minutes at 37° C., wash the plate; add chromogenic agent 100 μL, react for 15 minutes at 37° C.; and finally add 50 μL termination solution, then measure the OD450.
# Take 20 μL pre-reaction solution of antibody and standard from group 5 and add to the ciprofloxacin ELISA plate, react for 1 minute, discard the liquid in the well, and pat dry on absorbent paper, then add 20 μL mixture solution and react for 1 minute, repeat for 6 times altogether; wash the plate; add HRP labeled secondary antibody, react for 30 minutes at 37° C., wash the plate; add chromogenic agent 100 μL, react for 15 minutes at 37° C.; and finally add 50 μL termination solution, then measure the OD450.
# Ractopamine antibody = experiment: Competitive ELISA for Ractopamine (Embodiment 4)
# Procedure: Preparing the Ractopamine microplate: Ractopamine coating antigen is added to the microplate, 100 μL/well, react for 2 hours at 37° C.; discard the liquid in the well; add blocking solution into the microplate, 100 μL/well, blocking for 1 hour at 37° C.; wash 3 times with wash buffer, leave for reservation. Prepare Ractopamine standards with concentrations of 0 ppb, 0.05 ppb, 0.15 ppb, 0.45 ppb, 1.35 ppb, 4.05 ppb respectively, with wash buffer.
# Group 1: add 60 μL the standard and the Ractopamine antibody respectively into a new microplate, pre-react for 20 minutes; take 20 μL mixture solution of antibody and standard into the Ractopamine microplate, react for 1 minute, discard the liquid in the well, and pat dry on absorbent paper, then add 20 μL mixture solution and react for 1 minute, repeat for 5 times altogether, the pre-reaction product added into each well is 100 μL altogether; add HRP labeled secondary antibody, 100 μL per well, react for 45 minutes at 37° C.; wash the plate; add chromogenic agent 100 μL, react for 15 minutes at 37° C.; and finally add 50 μL termination solution, then measure the OD450.
# Group 2: add 60 μL the standard and the Ractopamine antibody respectively into a new microplate, pre-react for 20 minutes; take 100 μL mixture solution of antibody and standard into the Ractopamine microplate, react for 30 minutes, discard the liquid in the well, and pat dry on absorbent paper; wash the plate; add HRP labeled secondary antibody, 100 μL per well, react for 45 minutes at 37° C., wash the plate; add chromogenic agent 100 μL, react for 15 minutes at 37° C.; and finally add 50 μL termination solution, then measure the OD450.
# chloramphenicol Mcab = experiment: Competitive chemiluminescence immunoassay for chloramphenicol (Embodiment 5)
# Procedure: • 1) Preparation of the chloramphenicol microplate: add chloramphenicol-BSA conjugate into the ELISA plate, 100 μL per well, overnight at 4° C., wash 3 times with a separation time of 3 minutes each, pat dry; add 5% skimmed milk powder 130 μL per well, block for 1 hour at 37° C., pat dry; wash 3 times with wash buffer, pat dry, leave for reservation. Prepare the chloramphenicol standard solutions with wash buffer: 0 ppb, 0.01 ppb, 0.03 ppb, 0.09 ppb, 0.27 ppb, 0.81 ppb. • 2) Mix the standard and the chloramphenicol Mcab in equal volumes, incubate for 20 minutes at 37° C.; then transfer the reaction product into chloramphenicol microplate; • Group 1: transfer the reaction product into ELISA plate, 20 μL/well, reaction for 1 minute at 37° C., discard liquid in the well, repeat the operation 5 times, and the pre-reaction product added to each well is total 100 μL; • Group 2: one-time transfer the whole 100 μL reaction product into the chloramphenicol microplate, reacting for 20 minute at 37° C.; • 3) Wash 3 times; add HRP labeled secondary antibody, 100 μL per well, react for 45 minutes at 37° C.; wash 5 times; after adding luminous substrate, chemiluminescence measuring instrument is applied to measure the luminous intensity.
smiles,measurement,setting,value
O=C(O)c1cn(C2CC2)c2cc(N3CCNCC3)c(F)cc2c1=O [Ciprofloxacin],OD450,"ciprofloxacin antibody [1]; Group 1 (20 min pre-incubation, then 30 min on plate), ciprofloxacin 1 ppb",1.975
same,OD450,"ciprofloxacin antibody [1]; Group 1 (20 min pre-incubation, then 30 min on plate), ciprofloxacin 3 ppb",1.632
same,OD450,"ciprofloxacin antibody [1]; Group 1 (20 min pre-incubation, then 30 min on plate), ciprofloxacin 9 ppb",1.448
same,OD450,"ciprofloxacin antibody [1]; Group 1 (20 min pre-incubation, then 30 min on plate), ciprofloxacin 27 ppb",0.924
same,OD450,"ciprofloxacin antibody [1]; Group 1 (20 min pre-incubation, then 30 min on plate), ciprofloxacin 81 ppb",0.483
same,OD450,"ciprofloxacin antibody [1]; Group 2 (no pre-incubation, 30 min on plate), ciprofloxacin 1 ppb",1.904
same,OD450,"ciprofloxacin antibody [1]; Group 2 (no pre-incubation, 30 min on plate), ciprofloxacin 3 ppb",1.643
same,OD450,"ciprofloxacin antibody [1]; Group 2 (no pre-incubation, 30 min on plate), ciprofloxacin 9 ppb",1.203
same,OD450,"ciprofloxacin antibody [1]; Group 2 (no pre-incubation, 30 min on plate), ciprofloxacin 27 ppb",0.952
same,OD450,"ciprofloxacin antibody [1]; Group 2 (no pre-incubation, 30 min on plate), ciprofloxacin 81 ppb",0.523
same,OD450,"ciprofloxacin antibody [2]; ciprofloxacin 1 ppb, pre-incubation time 5 min",0.337
same,OD450,"ciprofloxacin antibody [2]; ciprofloxacin 1 ppb, pre-incubation time 10 min",0.385 and 0.353
same,OD450,"ciprofloxacin antibody [2]; ciprofloxacin 1 ppb, pre-incubation time 15 min",0.399 and 0.401
same,OD450,"ciprofloxacin antibody [2]; ciprofloxacin 1 ppb, pre-incubation time 20 min",0.434 and 0.439
same,OD450,"ciprofloxacin antibody [2]; ciprofloxacin 5 ppb, pre-incubation time 5 min",0.17 and 0.169
same,OD450,"ciprofloxacin antibody [2]; ciprofloxacin 5 ppb, pre-incubation time 10 min",0.175 and 0.187
same,OD450,"ciprofloxacin antibody [2]; ciprofloxacin 5 ppb, pre-incubation time 15 min",0.193 and 0.206
same,OD450,"ciprofloxacin antibody [2]; ciprofloxacin 5 ppb, pre-incubation time 20 min",0.213 and 0.22
same,OD450,"ciprofloxacin antibody [2]; ciprofloxacin 10 ppb, pre-incubation time 5 min",0.15 and 0.133
same,OD450,"ciprofloxacin antibody [2]; ciprofloxacin 10 ppb, pre-incubation time 10 min",0.152 and 0.136
same,OD450,"ciprofloxacin antibody [2]; ciprofloxacin 10 ppb, pre-incubation time 15 min",0.153 and 0.149
same,OD450,"ciprofloxacin antibody [2]; ciprofloxacin 10 ppb, pre-incubation time 20 min",0.169 and 0.178
same,OD450,"ciprofloxacin antibody [3]; ciprofloxacin 1 ppb, re-reaction 1 min, 6 times",0.863 and 0.813
same,OD450,"ciprofloxacin antibody [3]; ciprofloxacin 1 ppb, re-reaction time 5 min",1.21 and 1.189
same,OD450,"ciprofloxacin antibody [3]; ciprofloxacin 1 ppb, re-reaction time 10 min",1.517 and 1.488
same,OD450,"ciprofloxacin antibody [3]; ciprofloxacin 1 ppb, re-reaction time 20 min",1.884 and 1.874
same,OD450,"ciprofloxacin antibody [3]; ciprofloxacin 1 ppb, re-reaction time 30 min",2.036 and 1.989
same,OD450,"ciprofloxacin antibody [3]; ciprofloxacin 5 ppb, re-reaction 1 min, 6 times",0.412 and 0.372
same,OD450,"ciprofloxacin antibody [3]; ciprofloxacin 5 ppb, re-reaction time 5 min",0.706 and 0.664
same,OD450,"ciprofloxacin antibody [3]; ciprofloxacin 5 ppb, re-reaction time 10 min",1.003 and 0.984
same,OD450,"ciprofloxacin antibody [3]; ciprofloxacin 5 ppb, re-reaction time 20 min",1.342 and 1.343
same,OD450,"ciprofloxacin antibody [3]; ciprofloxacin 5 ppb, re-reaction time 30 min",1.501 and 1.499
same,OD450,"ciprofloxacin antibody [3]; ciprofloxacin 10 ppb, re-reaction 1 min, 6 times",0.302 and 0.332
same,OD450,"ciprofloxacin antibody [3]; ciprofloxacin 10 ppb, re-reaction time 5 min",0.565 and 0.485
same,OD450,"ciprofloxacin antibody [3]; ciprofloxacin 10 ppb, re-reaction time 10 min",0.894 and 0.749
same,OD450,"ciprofloxacin antibody [3]; ciprofloxacin 10 ppb, re-reaction time 20 min",1.204 and 1.101
same,OD450,"ciprofloxacin antibody [3]; ciprofloxacin 10 ppb, re-reaction time 30 min",1.269 and 1.182
same,IC50,ciprofloxacin antibody [3]; competitive reaction with solid phase antigen in a short time after pre-reaction,1 ppb
same,IC50,ciprofloxacin antibody [3]; long re-reaction time (before improvement),10 ppb
same,OD,"Ractopamine antibody; Group 1 (20 min pre-reaction; 20 μL, 1 min, 5 times), concentration 0.05 ppb",1.175
same,OD,"Ractopamine antibody; Group 1 (20 min pre-reaction; 20 μL, 1 min, 5 times), concentration 0.15 ppb",0.803
same,OD,"Ractopamine antibody; Group 1 (20 min pre-reaction; 20 μL, 1 min, 5 times), concentration 0.45 ppb",0.517
same,OD,"Ractopamine antibody; Group 1 (20 min pre-reaction; 20 μL, 1 min, 5 times), concentration 1.35 ppb",0.324
same,OD,"Ractopamine antibody; Group 1 (20 min pre-reaction; 20 μL, 1 min, 5 times), concentration 4.05 ppb",0.183
same,OD,"Ractopamine antibody; Group 2 (20 min pre-reaction; 100 μL, 30 min), concentration 0.05 ppb",1.584
same,OD,"Ractopamine antibody; Group 2 (20 min pre-reaction; 100 μL, 30 min), concentration 0.15 ppb",1.391
same,OD,"Ractopamine antibody; Group 2 (20 min pre-reaction; 100 μL, 30 min), concentration 0.45 ppb",1.003
same,OD,"Ractopamine antibody; Group 2 (20 min pre-reaction; 100 μL, 30 min), concentration 1.35 ppb",0.602
same,OD,"Ractopamine antibody; Group 2 (20 min pre-reaction; 100 μL, 30 min), concentration 4.05 ppb",0.323
O=C(N[C@H](CO)[C@H](O)c1ccc([N+](=O)[O-])cc1)C(Cl)Cl [chloramphenicol],B/B0,"chloramphenicol Mcab; Group 1 (20 μL/well, 1 min, 5 times), chloramphenicol standard 0.01 ppb",0.88 and 0.89
same,B/B0,"chloramphenicol Mcab; Group 1 (20 μL/well, 1 min, 5 times), chloramphenicol standard 0.03 ppb",0.66 and 0.64
same,B/B0,"chloramphenicol Mcab; Group 1 (20 μL/well, 1 min, 5 times), chloramphenicol standard 0.09 ppb",0.49 and 0.48
same,B/B0,"chloramphenicol Mcab; Group 1 (20 μL/well, 1 min, 5 times), chloramphenicol standard 0.27 ppb",0.21 and 0.23
same,B/B0,"chloramphenicol Mcab; Group 1 (20 μL/well, 1 min, 5 times), chloramphenicol standard 0.81 ppb",0.11 and 0.17
same,B/B0,"chloramphenicol Mcab; Group 2 (one-time 100 μL, 20 min), chloramphenicol standard 0.01 ppb",0.96 and 0.94
same,B/B0,"chloramphenicol Mcab; Group 2 (one-time 100 μL, 20 min), chloramphenicol standard 0.03 ppb",0.88 and 0.89
same,B/B0,"chloramphenicol Mcab; Group 2 (one-time 100 μL, 20 min), chloramphenicol standard 0.09 ppb",0.69
same,B/B0,"chloramphenicol Mcab; Group 2 (one-time 100 μL, 20 min), chloramphenicol standard 0.27 ppb",0.46 and 0.48
same,B/B0,"chloramphenicol Mcab; Group 2 (one-time 100 μL, 20 min), chloramphenicol standard 0.81 ppb",0.28 and 0.27
